The values below are quoted from earlier work in patent US9107837B2, “Sustained release formulation of naltrexone” (Orexigen Therapeutics, Inc., priority 2006, dated 2015).

The conditions of the series: open label, approximately 570 individuals with alcoholism.

With `O=C1CC[C@@]2(O)[C@H]3Cc4ccc(O)c5c4[C@@]2(CCN3CC2CC2)[C@H]1O5` [naltrexone, 17-(cyclopropylmethyl)-4,5α-epoxy-3,14-dihydroxymorphinan-6-one], the “New-onset adverse reaction: anxiety” value was 2%, the “New-onset adverse reaction: dizziness” value is reported as 4%, the “New-onset adverse reaction: fatigue” value is 4% and the “New-onset adverse reaction: headache” value is on record as 7%. Further, the “New-onset adverse reaction: insomnia” value is 3%, the “New-onset adverse reaction: nausea” value is 10%, the “New-onset adverse reaction: nervousness” value is listed as 4% and the “New-onset adverse reaction: somnolence” value is given as 2%. For the same compound, the “New-onset adverse reaction: vomiting” value is reported as 3%.
